Data reported in patent US12606548B2, “Fungicidal oxadiazoles” (FMC CORPORATION, priority 2019, dated 2026).
Marks after values point to notes of the source that are not given here.

Columns and labels:
Assay type in all cases: in vivo
Phakopsora pachyrhizi = test: Test A: test suspension sprayed on soybean seedlings, inoculated next day with Phakopsora pachyrhizi (Asian soybean rust), visual disease rating; conditions: for Test A rating (% disease control): relative to the controls
Description: General protocol for preparing test suspensions for Tests A-C: the test compounds were first dissolved in acetone in an amount equal to 3% of the final volume and then suspended at the desired concentration (in ppm) in acetone and purified water (50/50 mix by volume) containing 250 ppm of the surfactant PEG400 (polyhydric alcohol esters). The resulting test suspensions were then used in Tests A-C. The test suspension was sprayed to the point of run-off on soybean seedlings. The following day the seedlings were inoculated with a spore suspension of Phakopsora pachyrhizi (the causal agent of Asian soybean rust) and incubated in a saturated atmosphere at 22° C., for 24 h and then moved to a growth chamber at 22° C., for 8 days, after which time visual disease ratings were made. […] A dash (-) indicates the compound was not tested. The test suspensions were sprayed at the concentration listed in the column “Rate in ppm”, unless otherwise indicated.

Zymoseptoria tritici = test: Test B: test suspension sprayed on wheat seedlings, inoculated next day with Zymoseptoria tritici (wheat leaf blotch), visual disease rating; conditions: for Test B rating (% disease control): relative to the controls
Description: General protocol for preparing test suspensions for Tests A-C: the test compounds were first dissolved in acetone in an amount equal to 3% of the final volume and then suspended at the desired concentration (in ppm) in acetone and purified water (50/50 mix by volume) containing 250 ppm of the surfactant PEG400 (polyhydric alcohol esters). The resulting test suspensions were then used in Tests A-C.
The test suspension was sprayed to the point of run-off on wheat seedlings. The following day the seedlings were inoculated with a spore suspension of Zymoseptoria tritici (the causal agent of wheat leaf blotch) and incubated in a saturated atmosphere at 24° C., for 48 h, and then moved to a growth chamber at 20° C., for 17 days, after which time visual disease ratings were made.
Results for Tests A-C are given in Table A. In the Table, a rating of 100 indicates 100% disease control and a rating of 0 indicates no disease control (relative to the controls). A dash (-) indicates the compound was not tested. The test suspensions were sprayed at the concentration listed in the column “Rate in ppm”, unless otherwise indicated. An asterisk “*” next to the rating indicates a 250 ppm test suspension was used, a double asterisk “**” next to the rating indicates a 100 ppm test suspension was used, and a triple asterisk “***” next to the rating indicates a 50 ppm test suspension was used.

[1] = test system: Puccinia recondita f. sp. tritici; test: Test C: test suspension sprayed on wheat seedlings, inoculated next day with Puccinia recondita f. sp. tritici (wheat leaf rust), visual disease rating; conditions: for Test C rating (% disease control): relative to the controls
Description: General protocol for preparing test suspensions for Tests A-C: the test compounds were first dissolved in acetone in an amount equal to 3% of the final volume and then suspended at the desired concentration (in ppm) in acetone and purified water (50/50 mix by volume) containing 250 ppm of the surfactant PEG400 (polyhydric alcohol esters). The resulting test suspensions were then used in Tests A-C. The test suspension was sprayed to the point of run-off on wheat seedlings. The following day the seedlings were inoculated with a spore suspension of Puccinia recondita f. sp. tritici; (the causal agent of wheat leaf rust) and incubated in a saturated atmosphere at 20° C., for 24 h, and then moved to a growth chamber at 20° C., for 6 days, after which time visual disease ratings were made. […] A dash (-) indicates the compound was not tested. The test suspensions were sprayed at the concentration listed in the column “Rate in ppm”, unless otherwise indicated.

Compound	Test A rating (% disease control) (Phakopsora pachyrhizi; Rate 10 ppm test suspension)	Test B rating (% disease control) (Zymoseptoria tritici; 250 ppm test suspension)	Test C rating (% disease control) ([1]; Rate 10 ppm test suspension)	also measured
ON=Cc1cnn(Cc2ccc(-c3noc(C(F)(F)F)n3)cc2)c1 [compound 20]	–	–	–	Test A disease control rating (Phakopsora pachyrhizi; 250 ppm test suspension): 100%; Test B disease control rating (Zymoseptoria tritici; 250 ppm test suspension): 99%; Test C disease control rating ([1]; 250 ppm test suspension): 100%
N#CCOC(=O)c1cnn(Cc2ccc(-c3noc(C(F)(F)F)n3)cc2)c1 [compound 57]	–	–	–	Test A disease control rating (Phakopsora pachyrhizi; 10 ppm test suspension): 100%; Test B disease control rating (Zymoseptoria tritici; 100 ppm test suspension (double asterisk **)): 99** %; Test C disease control rating ([1]; 10 ppm test suspension): 100%
O=C(NCCC(F)(F)F)c1csc(COc2ccc(-c3noc(C(F)(F)F)n3)cc2)n1 [compound 472]	77%	22* %	0%	–
O=C(NCCn1cccn1)c1csc(COc2ccc(-c3noc(C(F)(F)F)n3)cc2)n1 [compound 471]	77%	15* %	80%	–
COCCNC(=O)c1coc(Cc2ccc(-c3noc(C(F)(F)F)n3)cc2)n1 [compound 257]	–	–	–	Test A disease control rating (Phakopsora pachyrhizi; 10 ppm test suspension): 100%; Test B disease control rating (Zymoseptoria tritici; 250 ppm test suspension): 99* %; Test C disease control rating ([1]; 10 ppm test suspension): 100%
N#CCCNC(=O)c1coc(Cc2ccc(-c3noc(C(F)(F)F)n3)cc2)n1 [compound 229]	–	–	–	Test A disease control rating (Phakopsora pachyrhizi; 10 ppm test suspension): 100%; Test B disease control rating (Zymoseptoria tritici; 250 ppm test suspension): 94* %; Test C disease control rating ([1]; 10 ppm test suspension): 100%
O=C(NCCOC(F)(F)F)c1coc(Cc2ccc(-c3noc(C(F)(F)F)n3)cc2)n1 [compound 401]	100%	77* %	99%	–
CCOC(=O)c1csc(COc2ccc(-c3noc(C(F)(F)F)n3)cc2)n1 [compound 404]	0%	0* %	68%	–
O=C(NCC(F)(F)F)c1coc(Cc2ccc(-c3noc(C(F)(F)F)n3)cc2)n1 [compound 316]	–	–	–	Test A disease control rating (Phakopsora pachyrhizi; 10 ppm test suspension): 100%; Test B disease control rating (Zymoseptoria tritici; 250 ppm test suspension): 5* %; Test C disease control rating ([1]; 10 ppm test suspension): 100%
N#CCNC(=O)c1coc(COc2ccc(-c3noc(C(F)(F)F)n3)cc2)n1 [compound 468]	84%	22* %	0%	–
1,3-dihydro-1-methyl-3-[[4-[5-(trifluoromethyl)-1,2,4-oxadiazol-3-yl]phenyl]methyl]-2H-benzimidazol-2-one [Compound 159]	–	–	–	Test A disease control rating (Phakopsora pachyrhizi; 250 ppm test suspension): 100%; Test B disease control rating (Zymoseptoria tritici; 250 ppm test suspension): 0%; Test C disease control rating ([1]; 250 ppm test suspension): 100%
CCOC(=O)c1ccc(Cc2ccc(-c3noc(C(F)(F)F)n3)cc2)cc1 [compound 453]	92%	50* %	0%	–
CON=C(CCl)COC(=O)c1cnn(Cc2ccc(-c3noc(C(F)(F)F)n3)cc2)c1 [compound 494]	100%	47* %	0%	–
O=C(NCCCC(F)(F)F)c1coc(Cc2ccc(-c3noc(C(F)(F)F)n3)cc2)n1 [compound 398]	100%	80* %	97%	–
CN(C)C(=O)C1=NOC(COc2cccc(-c3noc(C(F)(F)F)n3)c2)C1 (stereo not drawn) [compound 502]	–	62%	–	Test A rating (% disease control) (Phakopsora pachyrhizi; Rate 250 ppm test suspension): 100%; Test C rating (% disease control) ([1]; Rate 250 ppm test suspension): 100%
CCOC(=O)c1cnn(Cc2ccc(-c3noc(C(F)(F)F)n3)cc2)c1 [compound 276]	–	–	–	Test A disease control rating (Phakopsora pachyrhizi; 50 ppm test suspension): 100%; Test B disease control rating (Zymoseptoria tritici; 250 ppm test suspension): 35* %; Test C disease control rating ([1]; 50 ppm test suspension): 80%
O=C(c1ccc(Cc2ccc(-c3noc(C(F)(F)F)n3)cc2)o1)C(F)(F)F [compound 450]	94%	41* %	0%	–
CN(C)C(=O)C1=NOC(C)(Cn2cc(-c3noc(C(F)(F)F)n3)cn2)C1 (racemic) [compound 306]	–	–	–	Test A disease control rating (Phakopsora pachyrhizi; 50 ppm test suspension): 0%; Test B disease control rating (Zymoseptoria tritici; 250 ppm test suspension): 10* %; Test C disease control rating ([1]; 50 ppm test suspension): 0%

Compound	Test A rating (% disease control) (Phakopsora pachyrhizi; Rate 10 ppm test suspension)	Test B rating (% disease control) (Zymoseptoria tritici; 250 ppm test suspension)	Test C rating (% disease control) ([1]; Rate 10 ppm test suspension)	also measured
FC(F)(F)c1nc(-c2ccc(Cc3ccccc3)cc2)no1 [compound 451]	99%	8* %	0%	–
COC(=O)c1csc(Cc2ccc(-c3noc(C(F)(F)F)n3)cc2)c1 [Compound 455]	100%	66* %	0%	–
O=C(NCCC(F)(F)F)c1csc(Cc2ccc(-c3noc(C(F)(F)F)n3)cc2)n1 [compound 397]	100%	82* %	98%	–
Cc1ccccc1C(O)c1ccc(-c2noc(C(F)(F)F)n2)cc1 (racemic) [Compound 497]	100%	5* %	0%	–
COC(=O)c1cnc(Oc2ccc(-c3noc(C(F)(F)F)n3)cc2)s1 [compound 452]	81%	59* %	0%	–
O=C(NCCn1cccn1)c1coc(COc2ccc(-c3noc(C(F)(F)F)n3)cc2)n1 [compound 466]	100%	3* %	55%	–
ethyl 1-[[4-[5-(trifluoromethyl)-1,2,4-oxadiazol-3-yl]phenyl]methyl]-1H-pyrazole-4-carboxylate [Compound 83]	–	–	–	Test A disease control rating (Phakopsora pachyrhizi; 270 ppm test suspension): 100%; Test B disease control rating (Zymoseptoria tritici; 270 ppm test suspension): 5%; Test C disease control rating ([1]; 270 ppm test suspension): 100%
COC(=O)c1coc(COc2ccc(-c3noc(C(F)(F)F)n3)cc2)n1 [Compound 403, methyl 2-[[4-[5-(trifluoromethyl)-1,2,4-oxadiazol-3-yl]-phenoxy]methyl]oxazole-4-carboxylate]	60%	47* %	0%	–
O=C(NCCF)c1coc(Cc2ccc(-c3noc(C(F)(F)F)n3)cc2)n1 [compound 400]	100%	99* %	100%	–
O=C(NCC(F)(F)F)c1csc(COc2ccc(-c3noc(C(F)(F)F)n3)cc2)n1 [compound 470]	100%	0* %	94%	–
COC(=O)c1coc(Cc2ccc(-c3noc(C(F)(F)F)n3)cc2)c1 [compound 456]	100%	65* %	68%	–
O=C(CCl)COC(=O)c1cnn(Cc2ccc(-c3noc(C(F)(F)F)n3)cc2)c1 [compound 495]	100%	43* %	0%	–
methyl 1,2-dihydro-2-oxo-1-[[4-[5-(trifluoromethyl)-1,2,4-oxadiazol-3-yl]phenyl]methyl]-4-pyridinecarboxylate [Compound 24]	–	–	–	Test A disease control rating (Phakopsora pachyrhizi; 270 ppm test suspension): 100%; Test B disease control rating (Zymoseptoria tritici; 270 ppm test suspension): 18%; Test C disease control rating ([1]; 270 ppm test suspension): 100%
O=C(NCCC(F)(F)F)c1coc(COc2ccc(-c3noc(C(F)(F)F)n3)cc2)n1 [compound 467]	97%	6* %	68%	–
OC(c1ccc(-c2noc(C(F)(F)F)n2)cc1)c1cccc(Cl)c1 (racemic) [compound 499]	–	48* %	–	Test A rating (% disease control) (Phakopsora pachyrhizi; Rate 250 ppm test suspension): 100%; Test C rating (% disease control) ([1]; Rate 250 ppm test suspension): 100%
O=C(NCC(F)F)c1coc(Cc2ccc(-c3noc(C(F)(F)F)n3)cc2)n1 [compound 225]	–	–	–	Test A disease control rating (Phakopsora pachyrhizi; 10 ppm test suspension): 100%; Test B disease control rating (Zymoseptoria tritici; 250 ppm test suspension): 99* %; Test C disease control rating ([1]; 10 ppm test suspension): 100%
α-(phenylamino)-4-[5-(trifluoromethyl)-1,2,4-oxadiazol-3-yl]benzeneacetonitrile [Compound 13]	–	–	–	Test A disease control rating (Phakopsora pachyrhizi; 250 ppm test suspension): 100%; Test B disease control rating (Zymoseptoria tritici; 250 ppm test suspension): 86%; Test C disease control rating ([1]; 250 ppm test suspension): 100%
